Measurements taken from ChEMBL document CHEMBL2074326 (Proc Natl Acad Sci U S A, 2004).
Values belong to the molecule of their own block, whether it stands above or below them.

Tests used:
[1] = biological target: T1, Solute carrier organic anion transporter family member 4C1 (Homo sapiens, UniProt Q6ZQN7); experiment: TP_TRANSPORTER: inhibition of Digoxin uptake in OATP4C1-expressing MDCK cells; type: functional, cell-based
T1 sequence (Q6ZQN7 whole entry): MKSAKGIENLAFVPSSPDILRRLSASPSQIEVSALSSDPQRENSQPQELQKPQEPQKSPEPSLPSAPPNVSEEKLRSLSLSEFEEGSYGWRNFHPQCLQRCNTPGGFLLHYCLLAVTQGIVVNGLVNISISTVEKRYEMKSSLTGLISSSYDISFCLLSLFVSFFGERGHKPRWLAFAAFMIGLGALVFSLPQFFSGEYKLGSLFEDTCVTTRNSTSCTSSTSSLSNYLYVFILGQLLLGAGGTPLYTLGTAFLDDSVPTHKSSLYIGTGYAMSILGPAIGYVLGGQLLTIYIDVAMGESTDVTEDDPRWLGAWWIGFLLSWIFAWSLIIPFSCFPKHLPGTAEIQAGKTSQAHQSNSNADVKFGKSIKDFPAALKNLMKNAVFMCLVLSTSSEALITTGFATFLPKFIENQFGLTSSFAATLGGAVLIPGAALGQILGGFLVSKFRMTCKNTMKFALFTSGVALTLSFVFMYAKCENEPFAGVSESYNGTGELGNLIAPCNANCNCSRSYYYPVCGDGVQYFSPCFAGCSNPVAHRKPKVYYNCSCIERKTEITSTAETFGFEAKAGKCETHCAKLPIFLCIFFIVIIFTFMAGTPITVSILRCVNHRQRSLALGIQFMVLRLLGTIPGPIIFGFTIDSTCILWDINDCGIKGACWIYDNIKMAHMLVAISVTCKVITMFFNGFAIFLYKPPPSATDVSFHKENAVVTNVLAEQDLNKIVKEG

[2] = biological target: T1, Solute carrier organic anion transporter family member 4C1; experiment: TP_TRANSPORTER: inhibition of Triiodothyronine uptake in OATP4C1-expressing MDCK cells; type: functional, cell-based
[3] = substrate: C[C@H]1O[C@@H](O[C@H]2[C@@H](O)C[C@H](O[C@H]3[C@@H](O)C[C@H](O[C@H]4CC[C@@]5(C)[C@H](CC[C@@H]6[C@@H]5C[C@@H](O)[C@]5(C)[C@@H](C7=CC(=O)OC7)CC[C@]65O)C4)O[C@@H]3C)O[C@@H]2C)C[C@H](O)[C@@H]1O; experiment: cells, lysate or membranes named
Description: (§1) TP_TRANSPORTER: cell accumulation in OATP4C1-expressing MDCK cells

[4] = substrate: N[C@@H](Cc1cc(I)c(Oc2ccc(O)c(I)c2)c(I)c1)C(=O)O; experiment: cells, lysate or membranes named
Description: as §1

Molecule: C[C@H]1O[C@@H](O[C@H]2[C@@H](O)C[C@H](O[C@H]3[C@@H](O)C[C@H](O[C@H]4CC[C@@]5(C)[C@H](CC[C@@H]6[C@@H]5CC[C@]5(C)[C@@H](C7=CC(=O)OC7)CC[C@]65O)C4)O[C@@H]3C)O[C@@H]2C)C[C@H](O)[C@@H]1O [DIGITOXIN]
IC50 [1]: 120 nM

Molecule: C[C@]12CC[C@H](O)C[C@H]1CC[C@@H]1[C@@H]2C[C@@H](O)[C@]2(C)[C@@H](C3=CC(=O)OC3)CC[C@]12O [DIGOXIGENIN]
IC50 [1]: 490 nM

IC50 [2]: 8000 nM
Molecule: N[C@@H](Cc1cc(I)c(Oc2cc(I)c(O)c(I)c2)c(I)c1)C(=O)O [LEVOTHYROXINE]

B1: Solute carrier organic anion transporter family member 4C1 (Homo sapiens) (protein)
chain: T1 sequence (Q6ZQN7 whole entry)
Km [3]: 7.8 µM
Km [4]: 5.9 µM
